Laboratory results reported in paper PMC5550016, “Aminophosphinates against Helicobacter pylori ureolysis—Biochemical and whole-cell inhibition characteristics” (PLoS ONE, 2017).
Values joined by “and” are separate entries in the source; they are usually repeats but may differ in a detail not shown here. Identical values can stand only once. Like-named read-outs stand apart in the source and are kept apart here.

Tests used:
[1] = biological target: T1, purified recombinant urease from H. pylori (Helicobacter pylori, UniProt B5Z674); test: Inhibition of purified recombinant H. pylori urease (phenol-hypochlorite, Lineweaver-Burk); type: biochemical; conditions: 50 mM phosphate buffer pH 7.5, 37°C, 0.1–2.5 mM urea, competitive reversible inhibition
T1 construct: plasmid pGEM::ureOP, which encodes the entire urease gene cluster, was used to produce recombinant H. pylori urease; made in house; host or cells: E. coli Rosetta2 (DE3) + pGEM::ureOP
T1 sequence (B5Z674 whole entry, looked up): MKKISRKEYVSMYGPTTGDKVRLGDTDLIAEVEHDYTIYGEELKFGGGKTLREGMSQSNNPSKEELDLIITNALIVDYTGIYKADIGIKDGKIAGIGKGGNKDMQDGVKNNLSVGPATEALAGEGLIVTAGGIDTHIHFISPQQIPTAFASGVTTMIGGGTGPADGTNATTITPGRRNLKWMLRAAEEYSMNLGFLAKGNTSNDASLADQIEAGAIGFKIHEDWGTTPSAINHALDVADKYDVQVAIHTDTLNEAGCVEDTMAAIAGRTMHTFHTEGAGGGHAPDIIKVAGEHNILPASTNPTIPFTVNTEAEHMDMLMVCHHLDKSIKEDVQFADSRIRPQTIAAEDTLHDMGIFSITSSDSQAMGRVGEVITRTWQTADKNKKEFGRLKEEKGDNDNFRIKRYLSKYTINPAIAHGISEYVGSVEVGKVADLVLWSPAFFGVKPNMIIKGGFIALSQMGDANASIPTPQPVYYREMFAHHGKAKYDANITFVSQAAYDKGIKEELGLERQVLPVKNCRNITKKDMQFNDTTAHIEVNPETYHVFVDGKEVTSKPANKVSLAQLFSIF
Protocol: The kinetic parameters of urease were determined by measuring the initial rates of the reactions in 50 mM phosphate buffer (pH 7.5) at 37°C. Ammonia was routinely quantified by the phenol hypochlorite method as reported previously.
Inhibition studies were conducted by initiating the enzymatic reaction with the addition of the enzyme into assay mixtures (200 μL total volume) containing increasing concentrations of inhibitors and 0.1–2.5 mM urea. After 15 min of incubation at 37°C, the reaction was stopped by adding phenol-hypochlorite reagents and the absorbance of the formed indophenol blue complexes was measured at 650 nm. The Ki values were determined from Lineweaver-Burk plots after testing at least five inhibitor concentrations in a range that depended on their inhibitory strength. The concentration of inhibitor that caused the loss of 50% of the enzyme’s activity (IC50) was determined from the measurements that were performed at a urea concentration of 0.6 mM and calculated using the linear regression of the urease activity versus the logarithm of the inhibitor concentrations.
The values of Ki and IC50 for all analyzed compounds were calculated using the appropriate equations in GraphPad Prism 5. Errors were reported with two significant digits, and each measured parameter was given with the same number of decimal places as its error [32].

[2] = biological target: purified urease from Sporosarcina pasteurii (SPU); design: method as in PMID 18717581, PMID 20684601, PMID 21559954, PMID 25699141; conditions: read-out: Ki against SPU; cited from earlier work
[3] = biological target: T2, urease in intact H. pylori J99 (Helicobacter pylori, UniProt P69997); test: Urease inhibition in whole cells of H. pylori J99; type: cell-based
T2 construct: In the intact H. pylori J99 cells, the urease susceptibility profile was similar to that of E. coli (pGEM::ureOP); endogenous in cells
T2 sequence (Q9ZMZ4 whole entry): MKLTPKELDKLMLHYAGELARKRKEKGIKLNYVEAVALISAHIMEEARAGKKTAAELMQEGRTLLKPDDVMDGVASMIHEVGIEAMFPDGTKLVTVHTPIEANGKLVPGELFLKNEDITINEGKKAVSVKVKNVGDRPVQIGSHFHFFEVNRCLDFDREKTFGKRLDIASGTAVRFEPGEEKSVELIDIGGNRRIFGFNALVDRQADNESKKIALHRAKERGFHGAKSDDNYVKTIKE
T2 sequence (P69997 whole entry): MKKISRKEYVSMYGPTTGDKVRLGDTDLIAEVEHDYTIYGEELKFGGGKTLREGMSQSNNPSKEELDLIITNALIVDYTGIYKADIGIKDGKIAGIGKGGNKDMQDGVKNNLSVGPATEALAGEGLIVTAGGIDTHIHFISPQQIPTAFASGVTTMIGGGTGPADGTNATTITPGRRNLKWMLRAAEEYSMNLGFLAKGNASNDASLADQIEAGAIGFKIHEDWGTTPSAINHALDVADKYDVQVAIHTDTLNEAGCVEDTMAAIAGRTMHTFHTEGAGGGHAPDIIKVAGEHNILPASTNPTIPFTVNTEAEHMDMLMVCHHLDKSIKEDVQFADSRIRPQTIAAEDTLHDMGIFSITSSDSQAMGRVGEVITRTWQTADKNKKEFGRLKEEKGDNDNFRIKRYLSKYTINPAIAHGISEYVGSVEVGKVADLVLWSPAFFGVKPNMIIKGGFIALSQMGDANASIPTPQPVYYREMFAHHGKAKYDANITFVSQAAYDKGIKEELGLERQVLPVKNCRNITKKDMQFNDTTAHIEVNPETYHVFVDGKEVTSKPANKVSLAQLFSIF

[4] = biological target: T3, urease in intact E. coli (pGEM::ureOP) cells (Helicobacter pylori, UniProt B5Z674); test: Urease inhibition in whole cells of E. coli + pGEM::ureOP; type: cell-based; conditions: IC50 exceeding 2 mM considered not active
T3 construct: plasmid pGEM::ureOP, which encodes the entire urease gene cluster, was used to produce recombinant H. pylori urease; expressed in transfected cells; host or cells: E. coli Rosetta2 (DE3) transformed with pGEM::ureOP
T3 sequence (B5Z674 whole entry, looked up): as the sequence (B5Z674 whole entry, looked up) above
Protocol: The expression strain E. coli + pGEM::ureOP was cultured in 150 mL of LB broth (Biocorp, Poland) with 100 μg/mL ampicillin (Polfa, Tarchomin, Poland) at 37°C and induced with IPTG (0.75 mM) and Ni^2+ (0.75 mM) during the exponential growth phase, which was determined by the OD600 measurements (OD600 = 0.6). Further expression was conducted for 24 h at 22°C. The bacterial culture (1 mL) was harvested via centrifugation (2 min, 20 376 x g, 37°C) and washed three times with PBS. The pellets from 1-mL samples of the expression cell culture were resuspended in 100 μL of PBS. The hydrolysis of urea that is catalyzed by whole bacterial cells was performed in 96-well plates (Rotilabo, U-profile). The reaction progress curves were obtained by the addition of bacterial cells (1×10^9 CFU/mL final concentration) into mixtures (300 μL final volume) that contained 5 mM urea and various inhibitor concentrations that depended on their inhibitory strength. Alternatively, the reaction was initiated via the addition of a concentrated solution of urea after a 120-min preincubation of bacterial cells with the inhibitor. Samples (50 μL) of the reaction mixture were removed after the appropriate reaction time. The enzymatic reactions in the samples were terminated via the introduction of 100 μL of phenol-sodium nitroprusside solution, immediately followed by the addition of 100 μL of NaOH-hypochlorite solution. The absorption of indophenol blue was measured at 650 nm using a TECAN-Sunrise absorbance reader equipped with a gradient filter and Magellan software. The IC50 values were determined from the linear regression of the urease activity versus the logarithm of the inhibitor concentration. The reaction was studied in the absence and in the presence of the inhibitor. The influence of dimethylformamide (DMF), which was used as a solvent for several compounds, was also determined.

[5] = system: immortalized murine endothelial cell line from peripheral lymph node HEC A10; test: Sulforhodamine B antiproliferative assay, HEC A10; type: cell-based; conditions: Mus musculus, compound 0.5 mM, 72 h, read-out: % Proliferation inhibition ± SD
Protocol: (§1) The BALB/3T3 cell line was cultured in Dulbecco MEM (Gibco, Scotland) supplemented with 10% (v/v) FBS (Sigma-Aldrich, Poznań, Poland) and 2 mM L-glutamine (Sigma-Aldrich, Poznań, Poland). The MCF-10A cell line was cultured in F-12 Nutrient mixture supplemented with 5% (v/v) horse serum (both Gibco, Scotland), 0.05 μg/mL cholera toxin, 10 μg/mL insulin, 0.5 μg/mL hydrocortisone, and 20 ng/mL EGFH (all Sigma-Aldrich, Poznań, Poland). The Eph4-Ev cell line was cultured in Dulbecco MEM supplemented with 2 mM L-glutamine, 10% (v/v) calf bovine serum (ATCC Rockville, Maryland, USA) and puromycin (Sigma-Aldrich, Poznań, Poland). The HEC A10 cell line was cultured in OPTI-MEM (IIET, Wroclaw, Poland) supplemented with 2 mM L-glutamine and 5% (v/v) FBS. All culture media were additionally supplemented with antibiotics: 100 U/mL penicillin and 100 μg/mL streptomycin (both Polfa-Tarchomin, Poland). During all experiments, cells were maintained in a humid atmosphere at 37°C and 5% CO2 and passaged twice a week using EDTA-Trypsin (pH 8; IIET, Wroclaw, Poland) solution as a detachment agent.
(§2) This assay was used as previously described with minor modifications. Briefly, 24 h before adding the tested compounds, cells were seeded in 96-well plates (Sarstedt, Germany) in appropriate culture medium with 10^5 […] (100 μL/well). Cells were treated with each compound in at least four concentrations in the range from 500–4 μM for 72 h. Next, cells were fixed with 50 μL/well of 50% (w/v) trichloroacetic acid (Avantor Performance Materials, Gliwice, Poland). After a 1-hour incubation, the plates were washed several times with tap water, and 50 μL of 0.4% (w/v) solution of sulforhodamine B (Sigma-Aldrich, Germany) in 1% (v/v) acetic acid (Avantor Performance Materials, Gliwice, Poland) was added to each well. After a 30-min incubation at room temperature, unbound dye was washed out with 1% (v/v) acetic acid, whereas bound dye was solubilized with 10 mM unbuffered TRIS (Avantor Performance Materials, Gliwice, Poland) solution. The entire procedure was performed using an EL-406 washing station (BioTek Instruments, USA). Next, absorbance at 540 nm was measured using a Synergy H4 Hybrid Reader (BioTek Instruments, USA). Compounds at each concentration were tested in triplicate in a single experiment, and each experiment was repeated three times independently. The results were calculated using the Prolab-3 system based on Cheburator 0.4 software and was presented as proliferation inhibition percentages at the highest concentration used.

[6] = system: murine mammary gland epithelium Eph4-Ev; test: Sulforhodamine B antiproliferative assay, Eph4-Ev; type: cell-based; conditions: Mus musculus, compound 0.5 mM, 72 h, read-out: % Proliferation inhibition ± SD
Protocol: as §1, §2

[7] = system: mouse fibroblasts BALB/3T3; test: Sulforhodamine B antiproliferative assay, BALB/3T3; type: cell-based; conditions: compound 0.5 mM, 72 h, read-out: % Proliferation inhibition ± SD
Protocol: as §1, §2

[8] = system: human mammary gland MCF-10A; test: Sulforhodamine B antiproliferative assay, MCF-10A; type: cell-based; conditions: compound 0.5 mM, 72 h, read-out: % Proliferation inhibition ± SD
Protocol: as §1, §2

[9] = biological target: purified urease from Proteus mirabilis (PMU); design: method as in PMID 18717581, PMID 20684601, PMID 21559954, PMID 25699141; conditions: read-out: Ki against PMU; cited from earlier work
[10] = design: method as in PMID 9508511; conditions: pH 2; cited from earlier work
[11] = cells grown with urea, 2 h of preincubation with inhibitors in PBS under microaerobic conditions, read-out: IC502h PBS
[12] = cells grown with urea, 2 h of preincubation with inhibitors in growth medium under microaerobic conditions, read-out: IC502h medium
[13] = cells grown with urea, without preincubation, read-out: IC500
[14] = cells grown without urea, 2 h of preincubation with inhibitors in PBS under microaerobic conditions, read-out: IC502h PBS
[15] = cells grown without urea, without preincubation, read-out: IC500
[16] = IC500, without preincubation of cells with inhibitory compounds, 30-min reactions, 5 mM urea
[17] = IC502h PBS, 2 h of preincubation with inhibitors in PBS
[18] = read-out: IC500, without preincubation of cells with inhibitory compounds, 30-min reactions, 5 mM urea
[19] = read-out: IC502h PBS, 2 h of preincubation with inhibitors in PBS

Structure (SMILES) | Ki ([1]; Ki) | Ki [2] [nM] | IC50 [3, 11] [µM] | IC50 [3, 12] [µM] | IC50 [3, 13] [µM] | IC50 [3, 14] [µM] | IC50 [3, 15] [µM] | IC50 [4, 16] [µM] | IC50 [4, 17] [µM] | inhibition at 500 µM [5] [%] | inhibition at 500 µM [6] [%] | inhibition at 500 µM [7] [%] | inhibition at 500 µM [8] [%] | IC50 [4, 18] [µM] | IC50 [4, 19] [µM] | IC500 ([4]; without preincubation of cells with inhibitory compounds, 30-min reactions, 5 mM urea) | IC50 ([3]; cells grown without urea, preincubated cells, read-out: IC50) [µM] | Ki [9] [nM] | Ki [1] [µM] | half-life [10] [min]
CN(C)CP(C)(=O)O [Compound 3, N,N-dimethylaminomethyl-P-methylphosphinic acid] | 9.27 ± 0.35 µM | 620 | 395 ± 37 | 304 ± 16 | 640 ± 18 | 765 ± 31 | 530 ± 24 | 179 ± 32 | 25.1 ± 4.9 | – | – | – | – | – | – | – | – | – | – | –
CNCP(=O)(O)CO [Compound 4, N-methylaminomethyl-P-hydroxymethylphosphinic acid] | 1.03 µM | 430 | 373 ± 48 | 207 ± 11 | 465 ± 42 | 676 ± 23 | 341 ± 41 | 759 ± 106 | 430 ± 63 | 0 | 0 | 0 | 0 | – | – | – | – | – | – | –
NCP(=O)(O)CN [Compound 6, Bis(aminomethyl)phosphinic acid] | 61 ± 9.2 µM | – | > 2000 | > 2000 | > 2000 | 611 ± 63 | 1300 ± 239 | – | – | 7.7 ± 2.4 | 0 | 3.2 ± 1.6 | 0 | > 2000 | > 2000 | complete lack of inhibitory effects | – | – | – | –
CNCP(=O)(O)CN [Compound 7] | 20.9 ± 2 µM | – | 456 ± 45 | 574 ± 44 | > 2000 | 418 ± 48 | 327 ± 68 | 880 ± 105 | 440 ± 61 | 0 | 3.9 ± 2.1 | 0 | 0 | – | – | – | < 500 | – | – | –
CCCNCP(=O)(O)CN [Compound 9] | 22.1 ± 2.1 µM | – | 940 ± 59 | 553 ± 44 | 1500 ± 160 | 883 ± 96 | 772 ± 143 | 746 ± 94 | 306 ± 43 | 2.2 ± 1.5 | 0 | 0.7 ± 0.6 | 0 | – | – | – | – | – | – | –
CCCCCCNCP(=O)(O)CN [Compound 13, N-n-hexylaminomethyl-P-aminomethylphosphinic acid] | 0.29 µM and 0.294 µM | – | 608 ± 23 | 205 ± 15 | 510 ± 16 | 742 ± 55 | 597 ± 19 | 186 ± 30 | 16.9 ± 2.2 | 0 | 0 | 6.5 ± 3.6 | 0.5 ± 0.4 | – | – | – | – | 200 | – | –
CCCCCCCCNCP(=O)(O)CN [Compound 15] | – | – | 712 ± 28 | 276 ± 17 | 1010 ± 84 | 638 ± 22 | 1260 ± 53 | – | – | 0 | 2.7 ± 1.1 | 0 | 1.8 ± 1.2 | > 2000 | > 2000 | – | – | – | > 2000 | –
CNCP(=O)(O)CNC [Compound 21, bis(N-methylaminomethyl)phosphinic acid] | 26.1 ± 1.8 µM | – | 549 ± 15 | 117 ± 7.4 | 443 ± 24 | 132 ± 21 | 581 ± 37 | 1260 ± 189 | 269 ± 39 | 0 | 2.2 ± 1.5 | 0 | 0 | – | – | – | – | – | – | –
NP(N)(=O)NC(=O)c1ccc(F)cc1 [fluorofamide, N-(diaminophosphinyl)-4-fluorobenzamide] | – | – | – | – | – | – | – | – | – | – | – | – | – | – | – | – | – | – | – | 5
